The test system of data set [1] is TMD8. Nature of the data set: Antitumor activity against human TMD8 cells xenografted in NOD/SCID mouse assessed as reduction in tumor volume at 100 mg/kg, po administered for 5 days and measured on day 13. The note with it: time 13 day. The class given is functional.
For data set [2], the system named is TERT-RPE1. Nature of the data set: Induction of cell cycle arrest in human TERT-RPE1 cells assessed as accumulation of cells at G1 phase at 2500 nM incubated for 72 hrs by annexin V-FITC and PI staining based flow cytometry analysis. The class given is functional.
Data set [3] deals with HeLa. Kind of data set: Antiproliferative activity against human HeLa cells assessed as inhibition of cell growth measured for 48 hrs by MTT assay. It counts as functional, cell-based.
Data set [4] has as its system HeLa. Nature of the data set: Induction of apoptosis in human HeLa cells assessed as viable cells measured after 72 hrs by annexin V-FITC and PI staining based flow cytometry analysis. The class given is functional, cell-based. Particulars: dose 100-2500 nM.
The test system of data set [5] is HeLa. Kind of data set: Induction of cell cycle arrest in human HeLa cells assessed as accumulation of cells at G2/M phase at 2500 nM incubated for 72 hrs by annexin V-FITC and PI staining based flow cytometry analysis. It counts as functional.
Data set [6] can be described thus: Metabolic stability in mouse liver microsome assessed as half life measured upto 60 mins by LC-MS/MS analysis. Particulars: liver microsomes. It counts as ADME.
The target in data set [7] is Tubulin. Kind of data set: Inhibition of tubulin polymerization (unknown origin) incubated for 20 mins in presence of GTP by spectrophotometric analysis. It counts as protein-complex assay, Homo sapiens.
Data set [8] has as its system HeLa. Nature of the data set: Induction of cell cycle arrest in human HeLa cells assessed as accumulation of cells at G1 phase at 2500 nM incubated for 72 hrs by annexin V-FITC and PI staining based flow cytometry analysis. The class given is functional.
Data set [9] concerns TERT-RPE1. Kind of data set: Induction of cell cycle arrest in human TERT-RPE1 cells assessed as accumulation of cells at G2/M phase at 1000 nM incubated for 72 hrs by annexin V-FITC and PI staining based flow cytometry analysis. It counts as functional.
In data set [10] the test system is AHH-1. Nature of the data set: Induction of cell cycle arrest in human AHH-1 cells assessed as accumulation of cells at G1 phase at 2500 nM incubated for 72 hrs by annexin V-FITC and PI staining based flow cytometry analysis. It counts as functional.
Data set [11] in a line: Metabolic stability in human liver microsome assessed as half life measured upto 60 mins by LC-MS/MS analysis. The class given is ADME. Particulars: liver microsomes.
Data set [12] can be described thus: Toxicity in human T cells derived from human PBMC assessed as necrotic cells at 2.5 uM measured for 72 hrs by annexin V-FITC and PI staining based flow cytometry analysis (reference value: 0.48 to 0.56 %). The note with it: t-cell.
Data set [13] concerns AHH-1. Nature of the data set: Antiproliferative activity against human AHH-1 cells assessed as inhibition of cell growth measured for 48 hrs by MTT assay. The class given is functional, cell-based. The note with it: AHH-1, 48 h.
Data set [14] can be described thus: Toxicity in NOD/SCID mouse assessed as reduction in body condition score at 100 mg/kg, po administered for 5 days. Particulars: in vivo, 120 h, time 5 day. The class given is organism-based.
Data set [15] is described as follows: Toxicity in human T cells derived from human PBMC assessed as necrotic cells at 2.5 uM measured for 48 hrs by annexin V-FITC and PI staining based flow cytometry analysis (reference value: 0.31 to 0.48 %). Particulars: t-cell.

Take `COc1cc(C(=O)c2ccn(-c3ncnc4[nH]ccc34)c2)cc(OC)c1OC`: the Activity was 354 mm3 in data set [1]; 17.6% in data set [2]; “Dose-Dependent Effect” in data set [4]; 34.4% in data set [5]; 17% in [8]; 82.7% in data set [9]. In addition, the Activity is given as 9.8% in [10], 0.14% in data set [12], “Non-Toxic” in data set [14] and 0.41% in data set [15]. For the same compound, the half-maximal inhibitory concentration (IC50) in data set [3] came to 35.8 nM; in data set [7], 280 nM; in [13] it was 16.3 nM. In addition, the half-life in [6] is 14.7 min; in data set [11] it was 50.5 min.

For the origin of these results see ChEMBL document CHEMBL5352470, “RS6077 induces mitotic arrest and selectively activates cell death in human cancer cell lines and in a lymphoma tumor in vivo” (Eur J Med Chem, 2023).
